Data taken from ChEMBL document CHEMBL3046548, “Genetic and biochemical analysis of a laboratory-selected spirodiclofen-resistant strain of Tetranychus urticae Koch (Acari: Tetranychidae)” (2009).
Values after ≈ are worked out from the molar mass of the structure shown. Structures can show the parent of a compound that is named as a salt.

Experiments:
[1] = test system: Tetranychus urticae; assay: Synergism factor, ratio of LC50 for Tetranychus urticae SR-VP (two-spotted spider mite) larvae to LC50 for Tetranychus urticae SR-VP larva in presence of 10 mg/L esterase inhibitor, DEF; format: functional
[2] = test system: Tetranychus urticae; assay: Insecticidal activity against Tetranychus urticae LS-VL (two-spotted spider mite) larvae […] assessed as mortality treated 3-4 hr after 10 mg/L esterase inhibitor, DEF application measured after 1 day; format: functional
[3] = test system: Tetranychus urticae; assay: Insecticidal activity against Tetranychus urticae SR-VP (two-spotted spider mite) larvae reared under continuous pressure of 5000 mg/L spirodiclofen for 5 months assessed as mortality treated 3-4 hr after 10 mg/L esterase inhibitor, DEF application measured after 1 day; format: functional
[4] = test system: Tetranychus urticae; assay: (§1) Resistance ratio of LC50 for Tetranychus urticae SR-VP (two-spotted spider mite) larvae reared under continuous pressure of 5000 mg/L spirodiclofen for 5 months in presence of 10 mg/L esterase inhibitor, DEF to LC50 for Tetranychus urticae LS-VL (two-spotted spider mite) larvae in presence of 10 mg/L esterase inhibitor, DEF; format: functional
[5] = test system: Tetranychus urticae; assay: Synergism factor, ratio of LC50 for Tetranychus urticae LS-VL (two-spotted spider mite) larvae to LC50 for Tetranychus urticae LS-VL larva in presence of 10 mg/L esterase inhibitor, DEF; format: functional
[6] = test system: Tetranychus urticae; assay: Resistance ratio of LC50 for spirodiclofen-resistant Tetranychus urticae SR-VP (two-spotted spider mite) adults to LC50 for spirodiclofen-susceptible Tetranychus urticae LS-VL (two-spotted spider mite) adults; format: functional
[7] = test system: Tetranychus urticae; assay: Insecticidal activity against spirodiclofen-resistant Tetranychus urticae SR-VP (two-spotted spider mite) adults in kidney bean leaf disks assessed as mortality measured after 2 days; format: functional; conditions: foliar, 48 h
[8] = test system: Tetranychus urticae; assay: Insecticidal activity against spirodiclofen-susceptible Tetranychus urticae LS-VL (two-spotted spider mite) adults in kidney bean leaf disks assessed as mortality after 2 day; format: functional; conditions: foliar, 48 h
[9] = test system: Tetranychus urticae; assay: Insecticidal activity against spirodiclofen-resistant Tetranychus urticae SR-VP (two-spotted spider mite) eggs in kidney bean leaf disks assessed as mortality measured after 1 day; format: functional
[10] = test system: Tetranychus urticae; assay: Insecticidal activity against spirodiclofen-resistant Tetranychus urticae SR-VP (two-spotted spider mite) larvae reared under continuous pressure of 5000 mg/L spirodiclofen for 5 months in kidney bean leaf disks assessed as mortality measured after 1 day; format: functional; conditions: foliar, 24 h
[11] = test system: Tetranychus urticae; assay: Resistance ratio of LC50 for spirodiclofen-resistant Tetranychus urticae SR-VP (two-spotted spider mite) larvae reared under continuous pressure of 5000 mg/L spirodiclofen for 5 months to LC50 for spirodiclofen-susceptible Tetranychus urticae LS-VL (two-spotted spider mite) larvae; format: functional
[12] = test system: Tetranychus urticae; assay: Insecticidal activity against diploid F1 progeny generated from reciprocal cross between female Tetranychus urticae LS-VL (two-spotted spider mite) with male Tetranychus urticae SR-VP in kidney bean leaf disk assessed as mortality; format: functional
[13] = test system: Tetranychus urticae; assay: Insecticidal activity against spirodiclofen-susceptible Tetranychus urticae LS-VL (two-spotted spider mite) eggs in kidney bean leaf disks assessed as mortality after 1 day; format: functional; conditions: foliar, 24 h
[14] = test system: Tetranychus urticae; assay: Insecticidal activity against haploid F2 progeny generated from reciprocal cross between female Tetranychus urticae LS-VL (two-spotted spider mite) with male Tetranychus urticae SR-VP in kidney bean leaf disk assessed as mortality; format: functional; conditions: foliar
[15] = test system: Tetranychus urticae; assay: Insecticidal activity against haploid F2 progeny generated from reciprocal cross between male Tetranychus urticae LS-VL (two-spotted spider mite) with female Tetranychus urticae SR-VP in kidney bean leaf disk assessed as mortality; format: functional; conditions: foliar
[16] = test system: Tetranychus urticae; assay: Insecticidal activity against spirodiclofen-susceptible Tetranychus urticae LS-VL (two-spotted spider mite) larvae in kidney bean leaf disks assessed as mortality after 1 day; format: functional; conditions: foliar, 24 h
[17] = test system: Tetranychus urticae; assay: Insecticidal activity against diploid F1 progeny generated from reciprocal cross between male Tetranychus urticae LS-VL (two-spotted spider mite) with female Tetranychus urticae SR-VP in kidney bean leaf disk assessed as mortality; format: functional
[18] = test system: Tetranychus urticae; assay: Resistance ratio of LC50 for spirodiclofen-resistant Tetranychus urticae SR-VP (two-spotted spider mite) eggs to LC50 for spirodiclofen-susceptible Tetranychus urticae LS-VL (two-spotted spider mite) eggs; format: functional
[19] = test system: Tetranychus urticae; assay: Insecticidal activity against spirodiclofen-resistant Tetranychus urticae SR-VP (two-spotted spider mite) larvae maintained on bean plants sprayed with 5000 mg/L spirodiclofen assessed as mortality; format: functional
[20] = test system: Tetranychus urticae; assay: Insecticidal activity against spirodiclofen-resistant Tetranychus urticae SR-VP (two-spotted spider mite) larvae maintained on bean plants sprayed with 5000 mg/L spirodiclofen assessed as mortality measured at 6 months after mite transfer onto unsprayed bean plants; format: functional
[21] = test system: Tetranychus urticae; assay: Insecticidal activity against Tetranychus urticae SR-VP (two-spotted spider mite) larvae reared under continuous pressure of 5000 mg/L spirodiclofen for 5 months assessed as mortality treated 3-4 hr after 200 mg/L GSH depleter, DEM application measured after 1 day; format: functional
[22] = test system: Tetranychus urticae; assay: Insecticidal activity against Tetranychus urticae LS-VL (two-spotted spider mite) larvae […] assessed as mortality treated 3-4 hr after 200 mg/L GSH depleter, DEM application measured after 1 day; format: functional
[23] = test system: Tetranychus urticae; assay: as §1, with “200” for “10”, “GSH depleter, DEM” for “esterase inhibitor, DEF”; format: functional
[24] = test system: Tetranychus urticae; assay: Synergism factor, ratio of LC50 for Tetranychus urticae SR-VP (two-spotted spider mite) larvae to LC50 for Tetranychus urticae SR-VP larvae in presence of 200 mg/L GSH depleter, DEM; format: functional
[25] = test system: Tetranychus urticae; assay: Synergism factor, ratio of LC50 for Tetranychus urticae LS-VL (two-spotted spider mite) larvae to LC50 for Tetranychus urticae LS-VL larvae in presence of 200 mg/L GSH depleter, DEM; format: functional
[26] = test system: Tetranychus urticae; assay: Insecticidal activity against spirodiclofen-resistant Tetranychus urticae SR-VP (two-spotted spider mite) larvae in kidney bean leaf disks assessed as mortality measured after 1 day; format: functional; conditions: foliar, 24 h
[27] = test system: Tetranychus urticae; assay: Resistance ratio of LC50 for spirodiclofen-resistant Tetranychus urticae SR-VP (two-spotted spider mite) larvae to LC50 for spirodiclofen-susceptible Tetranychus urticae LS-VL (two-spotted spider mite) larvae; format: functional
[28] = test system: Tetranychus urticae; assay: Insecticidal activity against Tetranychus urticae SR-VP (two-spotted spider mite) larvae reared under continuous pressure of 5000 mg/L spirodiclofen for 5 months assessed as mortality treated 3-4 hr after 200 mg/L cytochrome P450 monooxygenase inhibitor, PBO application measured after 1 day
[29] = test system: Tetranychus urticae; assay: Insecticidal activity against Tetranychus urticae LS-VL (two-spotted spider mite) larvae reared under continuous pressure of 5000 mg/L spirodiclofen for 5 months assessed as mortality treated 3-4 hr after 200 mg/L cytochrome P450 monooxygenase inhibitor, PBO application measured after 1 day

In the case of CCCCSP(=O)(SCCCC)SCCCC [S,S,S,-TRIBUTYLPHOSPHOROTRITHIOATE], the RatioLC50 [1] is reported as 3.3, the LC50 [2] is reported as 6.3 µg/mL (≈ 20 µM) and the LC50 [3] is reported as 402 µg/mL (≈ 1280 µM). For the same compound, the RatioLC50 [4] was 64 and the RatioLC50 [5] was 0.8.
Work on CC[C@H](C)[C@H]1O[C@]2(C=C[C@@H]1C)C[C@@H]1C[C@@H](C/C=C(\C)[C@@H](O[C@H]3C[C@H](OC)[C@@H](O[C@H]4C[C@H](OC)[C@@H](O)[C@H](C)O4)[C@H](C)O3)[C@@H](C)/C=C/C=C3\CO[C@@H]4[C@H](O)C(C)=C[C@@H](C(=O)O1)[C@]34O)O2.CO[C@H]1C[C@H](O[C@H]2[C@H](C)O[C@@H](O[C@@H]3/C(C)=C/C[C@@H]4C[C@@H](C[C@]5(C=C[C@H](C)[C@@H](C(C)C)O5)O4)OC(=O)[C@@H]4C=C(C)[C@@H](O)[C@H]5OC/C(=C\C=C\[C@@H]3C)[C@]54O)C[C@@H]2OC)O[C@@H](C)[C@@H]1O [ABAMECTIN] yielded a RatioLC50 [6] of 1.3, an LC50 [7] of 0.52 µg/mL and an LC50 [8] of 0.4 µg/mL.
Work on CCCCCCCCCCCCC1=C(OC(C)=O)C(=O)c2ccccc2C1=O [ACEQUINOCYL] yielded an LC90 [9] of 60 µg/mL (≈ 156 µM), a RatioLC50 [6] of 3.8 and an LC50 [7] of 29.6 µg/mL (≈ 77 µM). The LC50 [8] was 7.7 µg/mL (≈ 20 µM).
Compound CCC(C)(C)C(=O)OC1=C(c2ccc(Cl)cc2Cl)C(=O)OC12CCCCC2 [SPIRODICLOFEN] has an LC50 [10] of 1340 µg/mL (≈ 3270 µM), an LC50 ([9]; Tetranychus urticae, SR-VP, foliar, 24 h) of 17.9 µg/mL (≈ 43.5 µM) and a RatioLC50 [11] of 277. The LC90 [12] was 150 µg/mL (≈ 365 µM), the LC50 ([12]; Tetranychus urticae, foliar) was 68 µg/mL (≈ 165 µM) and the LC50 [13] was 8.7 µg/mL (≈ 21.2 µM). The LC50 [14] was 56 µg/mL (≈ 136 µM), the LC50 [15] was 44 µg/mL (≈ 107 µM) and the LC50 [16] was 4.9 µg/mL (≈ 11.9 µM). The LC90 [17] was 236 µg/mL (≈ 574 µM), the LC50 ([17]; Tetranychus urticae, foliar) was 85 µg/mL (≈ 207 µM) and the RatioLC50 [18] was 2. The LC50 [19] was 10000 µg/mL (≈ 24300 µM) and the LC50 [20] was 5930 µg/mL (≈ 14400 µM).
Work on CCOC(=O)/C=C\C(=O)OCC [DIETHYL MALEATE] yielded an LC50 [21] of 1310 µg/mL, an LC50 [22] of 6.9 µg/mL and a RatioLC50 [23] of 189. The RatioLC50 [24] was 1 and the RatioLC50 [25] was 0.7.
CC(C)(C)c1ccc(CSc2cnn(C(C)(C)C)c(=O)c2Cl)cc1 [PYRIDABEN] was tested, and the RatioLC50 [6] was 0.9, the LC50 [7] was 135 µg/mL (≈ 370 µM) and the LC50 [8] was 156 µg/mL (≈ 427 µM).
For CCOc1cc(C(C)(C)C)ccc1C1COC(c2c(F)cccc2F)=N1 (stereo not drawn) [ETOXAZOLE], the LC50 [26] was 0.61 µg/mL (≈ 1.7 µM), the LC50 [16] was 0.76 µg/mL (≈ 2.11 µM) and the RatioLC50 [27] was 0.8.
Compound COc1ccc(-c2ccccc2)cc1NNC(=O)OC(C)C [BIFENAZATE] has a RatioLC50 [6] of 2, an LC50 [7] of 2.4 µg/mL (≈ 7.99 µM) and an LC50 [8] of 1.2 µg/mL (≈ 4 µM).
Cc1cc(C)c(C2=C(OC(=O)CC(C)(C)C)C3(CCCC3)OC2=O)c(C)c1 [SPIROMESIFEN] gave an LC50 [26] of 14.5 µg/mL (≈ 39.1 µM), an LC50 [16] of 0.79 µg/mL (≈ 2.13 µM) and a RatioLC50 [27] of 18.
In the case of CCCCOCCOCCOCc1cc2c(cc1CCC)OCO2 [PIPERONYL BUTOXIDE], the LC50 [28] is reported as 380 µg/mL (≈ 1120 µM) and the LC50 [29] is reported as 3.9 µg/mL (≈ 11.5 µM).
In the case of CCc1nn(C)c(C(=O)NCc2ccc(C(C)(C)C)cc2)c1Cl [TEBUFENPYRAD], the RatioLC50 [6] is reported as 2.2, the LC50 [7] is reported as 138 µg/mL (≈ 412 µM) and the LC50 [8] is reported as 63.5 µg/mL (≈ 190 µM).
